# Marks after values point to notes of the source that are not given here. Where no end group is shown, it is not given here.
# Tests used:
# [1] = tested on: DSS-induced colitis in the mouse; experiment: 10-day DSS-induced colitis, colon histological score (Example 6); type: in vivo
# Experimental: Two sections (proximal and distal) of colon were taken from each animal and preserved in neutral buffered formalin for subsequent histological analysis (haematoxylin and eosin staining) according to the following scoring system:
# Example 6 was carried out essentially as described in Example 5. The differences are indicated below.
# Animals were divided into 9 experimental groups.
# Two sections (proximal and distal) of colon were taken from each animal, processed for histological analysis (haematoxylin and eosin staining), and scored by a blind observer according to the scoring system described above.
# [2] = tested on: TNF-alfa secretion from PBMC; experiment: TNF-alfa secretion from PBMC, ELISA; type: cell-based, human
# Experimental: (§1) Peripheral blood was drawn from healthy volunteers (with approval from the relevant ethical committee in Denmark). Heparinized blood was diluted 1/1 v/v with RPMI and were subjected to Ficoll density centrifugation within 2 h of drawing. Plasma was collected from the top from individual donors and was kept on ice until it was used at 2% in the culture medium (autologous culture medium). Isolated PBMC were resuspended in autologous culture medium and seeded in 96-well culture plates with 255.000 cells per well in a total of 200 μl. […] The concentrations used for stimulation were optimized on 3 different donors in initial experiments, for LPS two different concentrations were used to be sure to be on a cytokine level that is possible to modulate. In some experiments PBMC were treated with Dexamethason and Indomethacin alone and together with LPS or LTA as a control on downregulation of inflammatory cytokines. The supernatants were collected after incubation at 37° C. for 24 hours, and stored at −80° C. until cytokine measurement. Viability was measured by Alamar Blue (Biosource, DALL 1100) in all experiments and in some cases also by MTS (Promega) according to manufacturer's instruction and was in some experiments also judged by counting of the cells by a Nucleocounter.
# Cytokine production in supernatants was measured by flow cytometry with a human inflammation cytometric bead array (CBA) according to manufacturer's instructions (BD) on a FACSarray flow cytometer. The following cytokines were measured: IL-8, IL-1β, IL-10, TNF, IL-12 p70, IL-6. In some experiments, cytokines were measured by ELISA kits from R&D systems (IL-10, TNF-α, IL-1β) according to the manufacturer' instruction.
# In Tables 6, 7 and 8, supernatants from another donor were analysed for cytokines by ELISA instead of by a cytometric bead array by flowcytometry and here the same were observed, although the sensitivity of the assay is lower and the detection limit much higher and therefore the effects were not as significant.
# IL-23, human PBMC = experiment: IL-23 in supernatants of human PBMC, ELISA; type: cell-based
# Experimental: as §1, with “Nucleocounter. […]” for “Nucleocounter.”
# Cell culture supernatants were collected and stored at −80° C. Amounts of IL-23 was measured by standard sandwich ELISA using commercially available antibodies and standards according to the manufacturer's protocols (eBioscience).
# [3] = Group F, 0.1 mg/kg twice daily i.v. + s.c.
# [4] = Group G, 0.1 mg/kg i.v. every 2. day
substance,measurement,setting,value
"hBD2: human beta defensin 2, SEQ ID NO:2; produced recombinantly in E. coli (Example 1); hBD2 of Tables 16-18 was prepared by chemical synthesis (GIGDPVTCLKSGAICHPVFCPRRYKQIGTCGLPGTKCCKKP; ends and bridges not checked; cysteine pairing not given here; listed as Homo sapiens)","Histology Score Distal Colon, mean","[1]; Group B, 1 mg/kg i.v.",3.56
same,"Histology Score Proximal Colon, mean","[1]; Group B, 1 mg/kg i.v.",1.78
same,"Histology Score Distal Colon, mean","[1]; Group C, 0.1 mg/kg i.v.",3.14*
same,"Histology Score Proximal Colon, mean","[1]; Group C, 0.1 mg/kg i.v.",1.71
same,"Histology Score Distal Colon, mean","[1]; Group D, 0.01 mg/kg i.v.",3.10**
same,"Histology Score Proximal Colon, mean","[1]; Group D, 0.01 mg/kg i.v.",1.70
same,"Histology Score Distal Colon, mean","[1]; Group E, 0.001 mg/kg i.v.",3.56
same,"Histology Score Proximal Colon, mean","[1]; Group E, 0.001 mg/kg i.v.",1.44
same,"Histology Score Distal Colon, mean",[1]; [3],2.90***
same,"Histology Score Proximal Colon, mean",[1]; [3],1.30*
same,"Histology Score Distal Colon, mean",[1]; [4],3.56
same,"Histology Score Proximal Colon, mean",[1]; [4],1.56
same,TNF-α,"[2]; LPS 0.6 ng/ml, hBD2 1 μg/ml",0.70 ng/mL
same,TNF-α,"[2]; LPS 0.6 ng/ml, hBD2 10 μg/ml",0.59 ng/mL
same,TNF-α,"[2]; LPS 0.6 ng/ml, hBD2 100 μg/ml",0.41 ng/mL
same,TNF-α,"[2]; LPS 20 ng/ml, hBD2 1 μg/ml",1.18 ng/mL
same,TNF-α,"[2]; LPS 20 ng/ml, hBD2 10 μg/ml",0.49 ng/mL
same,TNF-α,"[2]; LPS 20 ng/ml, hBD2 100 μg/ml",0.53 ng/mL
same,TNF-α,"[2]; LTA 1.25 μg/ml, hBD2 1 μg/ml",0.65 ng/mL
same,TNF-α,"[2]; LTA 1.25 μg/ml, hBD2 10 μg/ml",0.27 ng/mL
same,TNF-α,"[2]; LTA 1.25 μg/ml, hBD2 100 μg/ml",0.21 ng/mL
same,IL-23,"IL-23, human PBMC; Control (medium), treatment 1 μg/ml",218 pg/mL
same,IL-23,"IL-23, human PBMC; Control (medium), treatment 10 μg/ml",211 pg/mL
same,IL-23,"IL-23, human PBMC; Control (medium), treatment 100 μg/ml",207 pg/mL
same,IL-23,"IL-23, human PBMC; LPS 0.6 ng/ml, treatment 1 μg/ml",338 pg/mL
same,IL-23,"IL-23, human PBMC; LPS 0.6 ng/ml, treatment 10 μg/ml",462 pg/mL
same,IL-23,"IL-23, human PBMC; LPS 0.6 ng/ml, treatment 100 μg/ml",484 pg/mL
same,IL-23,"IL-23, human PBMC; LPS 20 ng/ml, treatment 1 μg/ml",263 pg/mL
same,IL-23,"IL-23, human PBMC; LPS 20 ng/ml, treatment 10 μg/ml",295 pg/mL
same,IL-23,"IL-23, human PBMC; LPS 20 ng/ml, treatment 100 μg/ml",488 pg/mL
same,IL-23,"IL-23, human PBMC; LTA 5 μg/ml, treatment 1 μg/ml",383 pg/mL
same,IL-23,"IL-23, human PBMC; LTA 5 μg/ml, treatment 10 μg/ml",438 pg/mL
same,IL-23,"IL-23, human PBMC; LTA 5 μg/ml, treatment 100 μg/ml",810 pg/mL

# From US20100016232A1, “Treatment Of Inflammatory Diseases With Mammal Beta Defensins” (Novozymes A/S, priority 2008, published 2010)
